# Laboratory results as given in US11246865B2 (priority 2017, dated 2022).
# Several values for one entry are separate records, joined by “and”; a condition that tells them apart may be missing. Equal values may be shown once. Entries after “also recorded” stand apart in the source; their conditions may differ.
# Columns and labels:
# [1] = Phase 1 study DPI-125.IV.001, safety of single intravenous bolus doses; assay type: in vivo, human
# Procedure: Given this positive preclinical data, Good Laboratory Practice (GLP) Investigational New Drug (IND) enabling toxicology studies were performed. DPI-125 was tested in human subjects in a PK and safety study. DPI-125.IV.001, was a randomized, single-center, double-blind, placebo-controlled, dose escalating Phase 1 study. The primary objective was to evaluate the safety of single doses of DPI-125 administered by intravenous bolus infusion in normal healthy adult subjects. Male and female subjects between 18 and 55 years of age, inclusive, who were in good health and who were not taking any medications were eligible for enrollment. For each dose group, cohorts of 6 subjects were randomized to receive either placebo (n=1) or DPI-125 for Injection (n=5) as a single bolus dose of 5, 10, 20, or 50 μg/kg administered over 2 minutes. A final cohort received 25 μg/kg administered over 1 minute. For this first in human study, it was decided that 50 μg/kg should be the highest dose to be tested so the maximum tolerated dose was not determined.
# [2] = rat, in vivo
# [3] = Preclinical toxicity profile; assay type: in vivo
# Text: The preclinical toxicity profile of DPI-125 was as expected for an opioid compound, with two positive exceptions.
# in vivo = details: rat
# [4] = target: T1, delta receptor in the mouse vas deferens (Mus musculus, UniProt P32300); assay: Mouse vas deferens delta receptor agonism
# T1 construct: from tissue; host or cells: mouse vas deferens
# [5] = target: T2, delta receptor in the mouse brain (Mus musculus, UniProt P32300); assay: Mouse brain delta receptor agonism
# T2 construct: from tissue; host or cells: mouse brain
# [6] = Studies 2 and 3: antinociceptive ED50 in naive and tolerant animals, tail pinch test; assay type: in vivo, rat; details: for antinociceptive ED50: s.c.; for antinociceptive ED50 / ED50: 20 min tail pinch; for ED50: Rattus norvegicus, sc, 20 min
# [7] = rat, in vivo; remark: listed apart in the source
# [8] = Study 1: tolerance and cross-tolerance, tail pinch test (MPE); assay type: in vivo, rat; details: for MPE on Day 1: all animals, both dose points and both time points (20 and 30 min); for time to maximal/complete tolerance: b.i.d. s.c. dosing, morphine 5.0 mg/kg, DPI-125 1.0 mg/kg; for antinociceptive effect / tolerance in DPI-125 tolerant animals: tolerant to 1.0 mg/kg DPI-125 BID; for antinociceptive effect / tolerance in DPI-125 tolerant animals / antinociceptive effect / tolerance in morphine tolerant animals: challenge morphine 5.0 or DPI-125 1.0 mg/kg; for antinociceptive effect / tolerance in morphine tolerant animals: tolerant to 5.0 mg/kg morphine BID
# [9] = healthy adults, single IV bolus 5-50 μg/kg
# [10] = DPI-125 tolerant versus naive animals
# [11] = DPI-125 tolerant animals, challenge dose 1 (day 7), 30 min
# [12] = DPI-125 tolerant animals, challenge dose 1 (day 7), morphine 5.0 or DPI-125 1.0 mg/kg s.c., 20 min
# [13] = DPI-125 tolerant animals, challenge dose 2 (day 7.25), 20 min
# [14] = DPI-125 tolerant animals, challenge dose 2 (day 7.25), 30 min
# [15] = DPI-125 tolerant animals, challenge dose 3 (day 8), 20 min
# [16] = DPI-125 tolerant animals, challenge dose 3 (day 8), 30 min
# [17] = DPI-125 tolerant animals, challenge dose 4 (day 8.25), 20 min
# [18] = DPI-125 tolerant animals, challenge dose 4 (day 8.25), 30 min
# [19] = morphine tolerant animals, challenge dose 1 (day 6), 30 min
# [20] = morphine tolerant animals, challenge dose 1 (day 6), morphine 5.0 or DPI-125 1.0 mg/kg s.c., 20 min
# [21] = morphine tolerant animals, challenge dose 2 (day 6.25), 20 min
# [22] = morphine tolerant animals, challenge dose 2 (day 6.25), 30 min
# [23] = morphine tolerant animals, challenge dose 3 (day 7), 20 min
# [24] = morphine tolerant animals, challenge dose 3 (day 7), 30 min
# [25] = morphine tolerant animals, challenge dose 4 (day 7.25), 20 min
# [26] = morphine tolerant animals, challenge dose 4 (day 7.25), 30 min
# [27] = tolerance development, dose 1 (day 1), s.c. BID (morphine 5.0, DPI-125 1.0 mg/kg), 20 minutes post-drug
# [28] = tolerance development, dose 1 (day 1), s.c. BID (morphine 5.0, DPI-125 1.0 mg/kg), 30 minutes post-drug
# [29] = tolerance development, dose 2 (day 1.25), s.c. BID, 20 minutes post-drug
# [30] = tolerance development, dose 2 (day 1.25), s.c. BID, 30 minutes post-drug
# [31] = tolerance development, dose 3 (day 2), s.c. BID, 20 minutes post-drug
# [32] = tolerance development, dose 3 (day 2), s.c. BID, 30 minutes post-drug
# [33] = tolerance development, dose 4 (day 2.25), s.c. BID, 20 minutes post-drug
# [34] = tolerance development, dose 4 (day 2.25), s.c. BID, 30 minutes post-drug
# [35] = tolerance development, dose 5 (day 3), s.c. BID, 20 minutes post-drug
# [36] = tolerance development, dose 5 (day 3), s.c. BID, 30 minutes post-drug
# [37] = tolerance development, dose 6 (day 3.25), s.c. BID, 20 minutes post-drug
# [38] = tolerance development, dose 6 (day 3.25), s.c. BID, 30 minutes post-drug
# [39] = tolerance development, dose 7 (day 4), s.c. BID, 20 minutes post-drug
# [40] = tolerance development, dose 7 (day 4), s.c. BID, 30 minutes post-drug
# [41] = tolerance development, dose 8 (day 4.25), s.c. BID, 20 minutes post-drug
# [42] = tolerance development, dose 8 (day 4.25), s.c. BID, 30 minutes post-drug
# [43] = tolerance development, dose 9 (day 5), s.c. BID, 20 minutes post-drug
# [44] = tolerance development, dose 9 (day 5), s.c. BID, 30 minutes post-drug
# [45] = tolerance development, dose 10 (day 5.25), s.c. BID, 20 minutes post-drug
# [46] = tolerance development, dose 10 (day 5.25), s.c. BID, 30 minutes post-drug
# T2 sequence (P32300 whole entry): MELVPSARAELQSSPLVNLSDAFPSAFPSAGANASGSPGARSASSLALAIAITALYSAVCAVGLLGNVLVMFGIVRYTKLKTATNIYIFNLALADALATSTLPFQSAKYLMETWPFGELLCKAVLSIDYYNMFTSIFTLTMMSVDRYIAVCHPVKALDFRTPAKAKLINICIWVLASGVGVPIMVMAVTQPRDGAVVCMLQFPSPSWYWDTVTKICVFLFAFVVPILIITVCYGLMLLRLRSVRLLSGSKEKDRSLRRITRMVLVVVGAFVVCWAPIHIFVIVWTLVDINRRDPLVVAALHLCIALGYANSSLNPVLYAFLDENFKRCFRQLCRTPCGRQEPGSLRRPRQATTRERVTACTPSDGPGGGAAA
# T1 sequence (P32300 whole entry): as above
smiles,measurement,setting,value
"C=CCN1C[C@H](C)N([C@H](c2ccsc2)c2cccc(O)c2)C[C@H]1C [DPI-125, (−)3-((S)-((2S,5R)-4-allyl-2,5-dimethyl-1-piperazinyl)(3-thienyl)methyl)phenol]",seizure activity / seizure liability,"[1]; EEG, first in human trial",no seizure activity was noted; also recorded: does not have seizure liability
same,dysphoria as a side effect,[1]; first in human trial,nor does it exhibit dysphoria
same,corrected QT intervals,[1]; [9],No time- or dose-related trends
same,deaths or serious AEs,[1]; [9],no deaths or any other serious AEs reported
same,most common drug-related AEs,[1]; [9],"somnolence, dizziness, and paraesthesia"
same,tolerability,[1]; [9],well tolerated
same,Analgesic ED50 Tail Pinch,[2],0.050 mg/kg
same,analgesic potency relative to morphine,[2],> 40 ×
same,antinociceptive potency relative to morphine,[2],47 times
same,emesis,[3]; even at the highest doses given,did not occur
same,"flushing, reddened mucous membranes or urticaria",[3]; in vivo,did not produce any
same,ED50,in vivo,0.72 mg/kg
same,delta-opioid agonist activity,[4],acts as a delta-opioid agonist
same,delta receptor agonist activity,[5],an agonist at the delta receptor
same,antinociceptive ED50,[6]; DPI-125 tolerant animals,1.218 mg/kg
same,Fold Change of ED50,[6]; [10],2.99 fold and 3.0 fold
same,ED50,[6]; DPI-125 tolerant animals,1.22 mg/kg
same,ED50,[6]; morphine tolerant animals,0.72 mg/kg
same,ED50,[6]; naive animals,0.41 mg/kg
same,potency in morphine tolerant animals relative to DPI-125 tolerant animals,[6]; more potent in morphine tolerant,1.7 fold
same,antinociceptive ED50,[6]; morphine tolerant animals,0.717 mg/kg
same,antinociceptive ED50,[6]; naive animals,0.407 mg/kg
same,Therapeutic Ratio,[7],14.4
same,therapeutic index relative to morphine,[7],approximately 7 ×
same,Mean MPE,[8]; [11],3.51%
same,Mean MPE,[8]; [12],8.77%
same,Mean MPE,[8]; [13],22.82%
same,Mean MPE,[8]; [14],7.90%
same,Mean MPE,[8]; [15],9.65%
same,Mean MPE,[8]; [16],2.63%
same,Mean MPE,[8]; [17],1.8±1.8% and 1.76%
same,Mean MPE,[8]; [18],0.88%
same,MPE on Day 1,[8],100%
same,time to maximal/complete tolerance,[8],8 days
same,Mean MPE,[8]; [19],80.7±15.2% and 80.7%
same,Mean MPE,[8]; [20],64.9%
same,Mean MPE,[8]; [21],81.6±12.6% and 81.6%
same,Mean MPE,[8]; [22],42.1%
same,Mean MPE,[8]; [23],50.9%
same,Mean MPE,[8]; [24],57.0%
same,Mean MPE,[8]; [25],30.7%
same,Mean MPE,[8]; [26],26.3%
same,Mean MPE,[8]; [27],100.0%
same,Mean MPE,[8]; [28],100.0%
same,Mean MPE,[8]; [29],100.0%
same,Mean MPE,[8]; [30],100.0%
same,Mean MPE,[8]; [31],99.1%
same,Mean MPE,[8]; [32],100.0%
same,Mean MPE,[8]; [33],79.8%
same,Mean MPE,[8]; [34],88.2%
same,Mean MPE,[8]; [35],84.7±10.0% and 84.7%
same,Mean MPE,[8]; [36],66.7±10.9% and 66.7%
same,Mean MPE,[8]; [37],81.1%
same,Mean MPE,[8]; [38],69.7%
same,Mean MPE,[8]; [39],70.6±12.3% and 70.6%
same,Mean MPE,[8]; [40],72.8%
same,Mean MPE,[8]; [41],75.0%
same,Mean MPE,[8]; [42],51.3%
same,Mean MPE,[8]; [43],75.9±9.5% and 75.9%
same,Mean MPE,[8]; [44],40.8±11.2% and 40.8%
same,Mean MPE,[8]; [45],47.4±11.9% and 47.4%
same,Mean MPE,[8]; [46],28.5±9.3% and 28.5%
same,Mean MPE,"[8]; tolerance development, dose 11 (day 6), s.c. BID, 20 minutes post-drug",34.2±12.5% and 34.2%
same,Mean MPE,"[8]; tolerance development, dose 11 (day 6), s.c. BID, 30 minutes post-drug",21.1%
same,Mean MPE,"[8]; tolerance development, dose 12 (day 6.25), s.c. BID, 20 minutes post-drug",37.7±12.7% and 37.7%
same,Mean MPE,"[8]; tolerance development, dose 12 (day 6.25), s.c. BID, 30 minutes post-drug",11.8±7.9% and 11.8%
same,antinociceptive effect / tolerance in DPI-125 tolerant animals,[8],no antinociceptive effects
same,antinociceptive effect / tolerance in morphine tolerant animals,[8],only partially tolerant; also recorded: significant antinociceptive effects
"CN1CC[C@]23c4c5ccc(O)c4O[C@H]2[C@@H](O)C=C[C@H]3[C@H]1C5 [Morphine, morphine, reference compound]",Analgesic ED50 Tail Pinch,[2],2.01 mg/kg
same,ED50,in vivo,4.23 mg/kg
same,Fold Change of ED50,[6]; [10],7.8 fold
same,ED50,[6]; DPI-125 tolerant animals,15.8 mg/kg
same,ED50,[6]; morphine tolerant animals,11.3 mg/kg
same,ED50,[6]; naive animals,2.04 mg/kg
same,Fold Change of ED50,[6]; morphine tolerant versus naive animals,5.5 fold
same,antinociceptive ED50,[6]; naive animals,2.037 mg/kg
same,Therapeutic Ratio,[7],2.1
same,Mean MPE,[8]; [11],2.63%
same,Mean MPE,[8]; [12],1.76%
same,Mean MPE,[8]; [13],0.00%
same,Mean MPE,[8]; [14],1.75%
same,Mean MPE,[8]; [15],3.51%
same,Mean MPE,[8]; [16],0.00%
same,Mean MPE,[8]; [17],0.88%
same,Mean MPE,[8]; [18],0.00%
same,MPE on Day 1,[8],100%
same,time to maximal/complete tolerance,[8],5 days
same,Mean MPE,[8]; [19],4.4%
same,Mean MPE,[8]; [20],4.4%
same,Mean MPE,[8]; [21],0.9%
same,Mean MPE,[8]; [22],2.6%
same,Mean MPE,[8]; [23],0.0%
same,Mean MPE,[8]; [24],0.9%
same,Mean MPE,[8]; [25],2.6%
same,Mean MPE,[8]; [26],1.8%
same,Mean MPE,[8]; [27],100.0%
same,Mean MPE,[8]; [28],100.0%
same,Mean MPE,[8]; [29],100.0%
same,Mean MPE,[8]; [30],100.0%
same,Mean MPE,[8]; [31],78.9%
same,Mean MPE,"[8]; tolerance development, dose 3 (day 2), s.c. BID, 20 minutes post-drug, listed as morphine sulfate",78.9±7.9%
same,Mean MPE,[8]; [32],75.9%
same,Mean MPE,"[8]; tolerance development, dose 3 (day 2), s.c. BID, 30 minutes post-drug, listed as morphine sulfate",78.9±8.6%
same,Mean MPE,[8]; [33],56.6%
same,Mean MPE,[8]; [34],57.9%
same,Mean MPE,[8]; [35],33.8%
same,Mean MPE,[8]; [36],46.5%
same,Mean MPE,[8]; [37],32.9%
same,Mean MPE,[8]; [38],24.1%
same,Mean MPE,[8]; [39],23.7%
same,Mean MPE,[8]; [40],20.6%
same,Mean MPE,[8]; [41],7.0%
same,Mean MPE,"[8]; tolerance development, dose 8 (day 4.25), s.c. BID, 20 minutes post-drug, listed as morphine sulfate",7.0±2.8%
same,Mean MPE,[8]; [42],5.7%
same,Mean MPE,"[8]; tolerance development, dose 8 (day 4.25), s.c. BID, 30 minutes post-drug, listed as morphine sulfate",5.7±1.8%
same,Mean MPE,[8]; [43],3.1%
same,Mean MPE,"[8]; tolerance development, dose 9 (day 5), s.c. BID, 20 minutes post-drug, listed as morphine sulfate",3.1±1.2%
same,Mean MPE,[8]; [44],2.2%
same,Mean MPE,"[8]; tolerance development, dose 9 (day 5), s.c. BID, 30 minutes post-drug, listed as morphine sulfate",2.2±1.0%
same,Mean MPE,[8]; [45],5.3%
same,Mean MPE,[8]; [46],3.9%
same,antinociceptive effect / tolerance in DPI-125 tolerant animals,[8],complete tolerance
same,antinociceptive effect / tolerance in DPI-125 tolerant animals,[8]; listed as morphine sulfate,no antinociceptive effects
same,antinociceptive effect / tolerance in morphine tolerant animals,[8],no antinociceptive effects
